Measured values as given in patent US7553864B2, “Compounds for the treatment of inflammatory disorders and microbial diseases” (Schering Corporation, priority 2005, dated 2009).

Tested on: LpxC enzyme
Assay: LpxC enzyme assay (RapidFire high-throughput mass spectrometry)
Format: biochemical
How it was run: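 0.2 nM enzyme with 1.0 μM UDP-3-O-(R-3-hydroxymyristoyl)-N-acetylglucosamine in 25 mM HEPES pH 7.3, 150 mM NaCl, 2.0 mM DTT, 0.01% BSA, 2% DMSO; 60 min at room temperature, quenched with HCl. Substrate and product quantified by RapidFire mass spectrometry; percent conversion gives percent inhibition versus DMSO control.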

[1] = concentration 0.10 (unit not given)
[2] = concentration 0.20 (unit not given)
[3] = concentration 0.39 (unit not given)
[4] = concentration 0.78 (unit not given)
[5] = concentration 1.56 (unit not given)
[6] = concentration 3.13 (unit not given)
[7] = concentration 6.25 (unit not given)
[8] = concentration 12.50 (unit not given)
[9] = concentration 25 (unit not given)
[10] = concentration 50 (unit not given)

SMILES	LpxC enzyme assay rating (% inhibition at indicated concentrations) [1]	LpxC enzyme assay rating (% inhibition at indicated concentrations) [2]	LpxC enzyme assay rating (% inhibition at indicated concentrations) [3]	LpxC enzyme assay rating (% inhibition at indicated concentrations) [4]	LpxC enzyme assay rating (% inhibition at indicated concentrations) [5]	LpxC enzyme assay rating (% inhibition at indicated concentrations) [6]	LpxC enzyme assay rating (% inhibition at indicated concentrations) [7]	LpxC enzyme assay rating (% inhibition at indicated concentrations) [8]	LpxC enzyme assay rating (% inhibition at indicated concentrations) [9]	LpxC enzyme assay rating (% inhibition at indicated concentrations) [10]
CN(C)C(=O)[C@H](O)[C@@H](O)C(=O)Nc1ccc(N2CCOCC2)cc1 [Compound 54]	C (less than 10% inhibition)	C (less than 10% inhibition)	C (less than 10% inhibition)	C (less than 10% inhibition)	C (less than 10% inhibition)	B (10-30% inhibition)	C (less than 10% inhibition)	C (less than 10% inhibition)	C (less than 10% inhibition)	C (less than 10% inhibition)
CN1CCN(c2ccc(NC(=O)[C@H](O)[C@@H](O)C(=O)N(C)C)cc2)CC1 [Compound 55]	C (less than 10% inhibition)	B (10-30% inhibition)	C (less than 10% inhibition)	B (10-30% inhibition)	B (10-30% inhibition)	B (10-30% inhibition)	C (less than 10% inhibition)	C (less than 10% inhibition)	B (10-30% inhibition)	B (10-30% inhibition)
CN(C)CCOc1ccc(NC(=O)[C@H](O)[C@@H](O)C(=O)N(C)C)cc1 [Compound 56]	C (less than 10% inhibition)	B (10-30% inhibition)	C (less than 10% inhibition)	C (less than 10% inhibition)	C (less than 10% inhibition)	C (less than 10% inhibition)	B (10-30% inhibition)	C (less than 10% inhibition)	C (less than 10% inhibition)	C (less than 10% inhibition)
CN(C)CCCOc1ccc(NC(=O)[C@H](O)[C@@H](O)C(=O)N(C)C)cc1 [Compound 57]	B (10-30% inhibition)	C (less than 10% inhibition)	B (10-30% inhibition)	C (less than 10% inhibition)	C (less than 10% inhibition)	C (less than 10% inhibition)	C (less than 10% inhibition)	C (less than 10% inhibition)	B (10-30% inhibition)	C (less than 10% inhibition)
CN(C)C(=O)[C@H](O)[C@@H](O)C(=O)Nc1ccc(-n2cccn2)cc1 [Compound 58]	C (less than 10% inhibition)	B (10-30% inhibition)	C (less than 10% inhibition)	B (10-30% inhibition)	C (less than 10% inhibition)	B (10-30% inhibition)	B (10-30% inhibition)	B (10-30% inhibition)	C (less than 10% inhibition)	B (10-30% inhibition)
CN(C)C(=O)[C@H](O)[C@@H](O)C(=O)Nc1ccc(-c2cc[nH]n2)cc1 [Compound 59]	B (10-30% inhibition)	C (less than 10% inhibition)	B (10-30% inhibition)	C (less than 10% inhibition)	C (less than 10% inhibition)	C (less than 10% inhibition)	C (less than 10% inhibition)	C (less than 10% inhibition)	B (10-30% inhibition)	C (less than 10% inhibition)
O=C(NCCCCl)[C@H](O)[C@@H](O)C(=O)Nc1ccc(C#Cc2ccccc2)cc1 [Compound 60]	C (less than 10% inhibition)	C (less than 10% inhibition)	B (10-30% inhibition)	B (10-30% inhibition)	C (less than 10% inhibition)	B (10-30% inhibition)	B (10-30% inhibition)	B (10-30% inhibition)	C (less than 10% inhibition)	C (less than 10% inhibition)
CCCc1ccc(NC(=O)[C@H](O)[C@@H](O)C(=O)NCCCCl)cc1 [Compound 61]	C (less than 10% inhibition)	C (less than 10% inhibition)	C (less than 10% inhibition)	C (less than 10% inhibition)	C (less than 10% inhibition)	C (less than 10% inhibition)	C (less than 10% inhibition)	C (less than 10% inhibition)	B (10-30% inhibition)	B (10-30% inhibition)
O=C(NCCCCl)[C@H](O)[C@@H](O)C(=O)Nc1ccc(-n2cccn2)cc1 [Compound 62]	C (less than 10% inhibition)	C (less than 10% inhibition)	C (less than 10% inhibition)	C (less than 10% inhibition)	B (10-30% inhibition)	C (less than 10% inhibition)	B (10-30% inhibition)	B (10-30% inhibition)	B (10-30% inhibition)	C (less than 10% inhibition)
